pIC50: −log10 of the molar value. Structures can show the parent of a compound that is named as a salt.
molecular target: T1, Human CCR3 (Homo sapiens, UniProt P51677); experiment: Calcium mobilization assay, eotaxin-stimulated; format: cell-based; details: human CCR3-transformed K562 cells, 10 nM eotaxin; compounds of about 40 to 90% purity; read-out: Activity grade Ca2+ (IC50 class)
T1 construct: The cloned CCR3 cDNA was constructed with pcDNA3 vector and transfected into a IC562 cell line; expressed in transfected cells
T1 sequence (P51677 1-355): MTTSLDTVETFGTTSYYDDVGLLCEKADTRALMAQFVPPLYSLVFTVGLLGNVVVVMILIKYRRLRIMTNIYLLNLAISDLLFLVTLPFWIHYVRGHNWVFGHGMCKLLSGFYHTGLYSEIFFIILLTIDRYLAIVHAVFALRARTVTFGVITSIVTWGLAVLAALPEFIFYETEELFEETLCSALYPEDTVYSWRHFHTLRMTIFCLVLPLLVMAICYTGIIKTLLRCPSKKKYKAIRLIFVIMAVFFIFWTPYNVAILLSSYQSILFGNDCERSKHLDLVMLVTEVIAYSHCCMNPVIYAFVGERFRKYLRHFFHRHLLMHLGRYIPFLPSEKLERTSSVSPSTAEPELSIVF
Summary of the method: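 K562 cells transfected with human CCR3, pretreated 20–24 h with 5 mM sodium butyrate, loaded with Fluo-3AM. Compound added 10 min before stimulation with 10 nM (final) eotaxin; cytoplasmic calcium read over 60 s by FDSS, IC50 from inhibition curve.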

| SMILES | pIC50 |
| --- | --- |
| Cc1cc(C)cc(Oc2ccc([N+](=O)[O-])cc2S(=O)(=O)N2CCN(C(=O)OC(C)(C)C)CC2)c1 [Example 1-1, tert-butyl 4-{[2-(3,5-dimethylphenoxy)-5-nitrophenyl]sulfonyl}-1-piperazinecarboxylate] | < 5.00 |
| Cc1cc(C)cc(Oc2ccc([N+](=O)[O-])cc2S(=O)(=O)N2CCNCC2)c1 [Example 1-2, 1-{[2-(3,5-dimethylphenoxy)-5-nitrophenyl]sulfonyl}piperazine hydrochloride] | > 6.00 |
| Cl.O=[N+]([O-])c1ccc(Oc2cc(F)cc(F)c2)c(S(=O)(=O)N2CCNCC2)c1 [Example 1-4] | > 6.00 |
| COc1cc(OC)cc(Oc2ccc([N+](=O)[O-])cc2S(=O)(=O)N2CCNCC2)c1.Cl [Example 1-5] | < 5.00 |
| Cl.O=[N+]([O-])c1ccc(Oc2cc(C(F)(F)F)cc(C(F)(F)F)c2)c(S(=O)(=O)N2CCNCC2)c1 [Example 1-6] | > 6.00 |
| CC(C)(C)c1cc(Oc2ccc([N+](=O)[O-])cc2S(=O)(=O)N2CCNCC2)cc(C(C)(C)C)c1.Cl [Example 1-7] | < 5.00 |
| Cc1cc(Oc2ccc([N+](=O)[O-])cc2S(=O)(=O)N2CCNCC2)cc(C(C)C)c1.Cl [Example 1-8] | > 6.00 |
| CC(C)c1cccc(Oc2ccc([N+](=O)[O-])cc2S(=O)(=O)N2CCNCC2)c1.Cl [Example 1-9] | > 6.00 |
| Cl.N#Cc1cccc(Oc2ccc([N+](=O)[O-])cc2S(=O)(=O)N2CCNCC2)c1 [Example 1-10] | 5.00 to 6.00 |
| Cl.O=[N+]([O-])c1ccc(Oc2cccc3ccccc23)c(S(=O)(=O)N2CCNCC2)c1 [Example 1-11] | > 6.00 |
| Cc1ccccc1Oc1ccc([N+](=O)[O-])cc1S(=O)(=O)N1CCNCC1.Cl [Example 1-12] | 5.00 to 6.00 |
| Cl.Cl.Cl.Nc1ccc(Oc2ccc([N+](=O)[O-])cc2S(=O)(=O)N2CCNCC2)cc1 [Example 1-13] | < 5.00 |
| O=[N+]([O-])c1ccc(Oc2ccccc2)c(S(=O)(=O)N2CCNCC2)c1 [Example 1-18] | 5.00 to 6.00 |
| COc1ccc(Oc2ccc([N+](=O)[O-])cc2S(=O)(=O)N2CCNCC2)cc1 [Example 1-19] | < 5.00 |
| O=[N+]([O-])c1ccc(Oc2ccc(F)cc2)c(S(=O)(=O)N2CCNCC2)c1 [Example 1-20] | < 5.00 |
| CC(C)(C)c1ccc(Oc2ccc([N+](=O)[O-])cc2S(=O)(=O)N2CCNCC2)cc1 [Example 1-21] | < 5.00 |
| O=[N+]([O-])c1ccc(Oc2ccc(Cl)cc2)c(S(=O)(=O)N2CCNCC2)c1 [Example 1-22] | < 5.00 |
| O=[N+]([O-])c1ccc(Oc2cccc(F)c2)c(S(=O)(=O)N2CCNCC2)c1 [Example 1-25] | > 6.00 |
| COc1ccccc1Oc1ccc([N+](=O)[O-])cc1S(=O)(=O)N1CCNCC1.Cl [Example 1-27] | > 6.00 |
| Cl.O=[N+]([O-])c1ccc(Oc2ccccc2Cl)c(S(=O)(=O)N2CCNCC2)c1 [Example 1-28] | > 6.00 |
| N#Cc1ccccc1Oc1ccc([N+](=O)[O-])cc1S(=O)(=O)N1CCNCC1 [Example 1-29] | 5.00 to 6.00 |
| CC(=O)c1ccccc1Oc1ccc([N+](=O)[O-])cc1S(=O)(=O)N1CCNCC1.Cl [Example 1-30] | < 5.00 |
| CC(=O)c1cccc(Oc2ccc([N+](=O)[O-])cc2S(=O)(=O)N2CCNCC2)c1.Cl [Example 1-31] | < 5.00 |

| SMILES | pIC50 |
| --- | --- |
| CN(C)c1cccc(Oc2ccc([N+](=O)[O-])cc2S(=O)(=O)N2CCNCC2)c1.Cl [Example 1-32] | 5.00 to 6.00 |
| Cl.O=[N+]([O-])c1ccc(Oc2cc(Cl)cc(Cl)c2)c(S(=O)(=O)N2CCNCC2)c1 [Example 1-33] | > 6.00 |
| Cl.O=[N+]([O-])c1ccc(Oc2cccc(C(F)(F)F)c2)c(S(=O)(=O)N2CCNCC2)c1 [Example 1-34] | > 6.00 |
| Cc1cc(C)cc(Oc2ccc(S(C)(=O)=O)cc2S(=O)(=O)N2CCNCC2)c1.Cl [Example 1-35] | > 6.00 |
| CC(C)(C)c1cccc(Oc2ccc([N+](=O)[O-])cc2S(=O)(=O)N2CCNCC2)c1.Cl [Example 1-36] | > 6.00 |
| COc1cc(C)cc(Oc2ccc([N+](=O)[O-])cc2S(=O)(=O)N2CCNCC2)c1.Cl [Example 1-37] | > 6.00 |
| Cl.O=[N+]([O-])c1cccc(Oc2ccc([N+](=O)[O-])cc2S(=O)(=O)N2CCNCC2)c1 [Example 1-38] | > 6.00 |
| Cl.O=[N+]([O-])c1ccc(Oc2cccc(Br)c2)c(S(=O)(=O)N2CCNCC2)c1 [Example 1-39] | > 6.00 |
| CCCCc1ccccc1Oc1ccc([N+](=O)[O-])cc1S(=O)(=O)N1CCNCC1.Cl [Example 1-40] | > 6.00 |
| Cc1cc(C)cc(Oc2ccccc2S(=O)(=O)N2CCNCC2)c1.Cl [Example 1-41] | 5.00 to 6.00 |
| Cc1cc(C)cc(Oc2ccc(C(=O)N3CCNCC3)cc2S(=O)(=O)N2CCNCC2)c1.Cl.Cl [Example 1-42] | < 5.00 |
| Cc1cc(C)cc(Oc2ccc(C(F)(F)F)cc2S(=O)(=O)N2CCNCC2)c1.Cl [Example 1-43] | > 6.00 |
| Cc1cc(C)cc(Oc2cc(C)c([N+](=O)[O-])cc2S(=O)(=O)N2CCNCC2)c1.Cl [Example 1-44] | 5.00 to 6.00 |
| Cc1cc(Oc2cc(Cl)cc(Cl)c2)c(S(=O)(=O)N2CCNCC2)cc1[N+](=O)[O-].Cl [Example 1-45] | > 6.00 |
| Cc1cc(C)cc(Oc2cc(C(F)(F)F)ccc2S(=O)(=O)N2CCNCC2)c1.Cl [Example 1-46] | < 5.00 |
| COc1cc(Oc2cc(C)cc(C)c2)c(S(=O)(=O)N2CCNCC2)cc1[N+](=O)[O-].Cl [Example 1-47] | < 5.00 |
| O=[N+]([O-])c1ccc(Oc2cc(Cl)cc(Cl)c2)c(S(=O)(=O)N2CC3CCCNC3C2)c1 (stereo not shown) [Example 1-48] | > 6.00 |
| Cl.O=S(=O)(c1cc(F)ccc1Oc1cc(Cl)cc(Cl)c1)N1CCNCC1 [Example 1-51] | > 6.00 |
| Cc1cc(C)cc(Oc2ccc([N+](=O)[O-])cc2S(=O)(=O)N2CC(C)NCC2C)c1.Cl (stereo not shown) [Example 1-54] | > 6.00 |
| Cl.O=S(=O)(c1cc(Cl)ccc1Oc1cc(Cl)cc(Cl)c1)N1CCNCC1 [Example 1-56] | > 6.00 |
| Cl.O=S(=O)(c1cc(Br)ccc1Oc1cc(Cl)cc(Cl)c1)N1CCNCC1 [Example 1-57] | > 6.00 |
| Cc1cc(Oc2ccc([N+](=O)[O-])cc2S(=O)(=O)N2CCNCC2)ccc1Cl.Cl [Example 1-60] | 5.00 to 6.00 |
| Cc1ccc(C)c(Oc2ccc([N+](=O)[O-])cc2S(=O)(=O)N2CCNCC2)c1C.Cl [Example 1-61] | 5.00 to 6.00 |

| SMILES | pIC50 |
| --- | --- |
| Cc1cccc(Oc2ccc([N+](=O)[O-])cc2S(=O)(=O)N2CCNCC2)c1C.Cl [Example 1-62] | > 6.00 |
| Cc1ccc(Oc2ccc([N+](=O)[O-])cc2S(=O)(=O)N2CCNCC2)cc1C.Cl [Example 1-63] | > 6.00 |
| Cc1ccc(C)c(Oc2ccc([N+](=O)[O-])cc2S(=O)(=O)N2CCNCC2)c1.Cl [Example 1-64] | > 6.00 |
| Cc1cc(C)c(C)c(Oc2ccc([N+](=O)[O-])cc2S(=O)(=O)N2CCNCC2)c1.Cl [Example 1-65] | > 6.00 |
| Cc1ccc(C(C)C)c(Oc2ccc([N+](=O)[O-])cc2S(=O)(=O)N2CCNCC2)c1.Cl [Example 1-66] | 5.00 to 6.00 |
| Cl.O=[N+]([O-])c1ccc(Oc2c(F)c(F)cc(F)c2F)c(S(=O)(=O)N2CCNCC2)c1 [Example 1-74] | > 6.00 |
| O=[N+]([O-])c1ccc(Oc2cc(Br)cc(Br)c2)c(S(=O)(=O)N2CCNCC2)c1 [Example 1-76] | > 6.00 |
| Cl.O=[N+]([O-])c1ccc(Oc2cc(Cl)cc(Cl)c2F)c(S(=O)(=O)N2CCNCC2)c1 [Example 1-77] | > 6.00 |
| Cc1cc(Oc2ccc([N+](=O)[O-])cc2S(=O)(=O)N2CCNCC2)cc(C)c1Cl [Example 1-79] | > 6.00 |
| Cc1ccc(Cl)c(Oc2ccc([N+](=O)[O-])cc2S(=O)(=O)N2CCNCC2)c1 [Example 1-80] | > 6.00 |
| Cc1cc(Oc2ccc([N+](=O)[O-])cc2S(=O)(=O)N2CCNCC2)c(C(C)C)cc1Cl [Example 1-81] | < 5.00 |
| O=[N+]([O-])c1ccc(Oc2cc(Cl)ccc2Cl)c(S(=O)(=O)N2CCNCC2)c1 [Example 1-84] | > 6.00 |
| Cl.O=[N+]([O-])c1ccc(Oc2cc(Cl)cc(Cl)c2Cl)c(S(=O)(=O)N2CCNCC2)c1 [Example 1-86] | > 6.00 |
| O=C(O)C1CNCCN1S(=O)(=O)c1cc([N+](=O)[O-])ccc1Oc1cc(Cl)cc(Cl)c1 (stereo not shown) [Example 1-87] | > 6.00 |
| Cc1cc(C)cc(Oc2ccc([N+](=O)[O-])cc2S(=O)(=O)N2CCN(CCO)CC2)c1 [Example 1-88] | > 6.00 |
| Cc1cc(C)cc(Oc2ccc([N+](=O)[O-])cc2S(=O)(=O)N2CCN(CCOCCO)CC2)c1 [Example 1-89] | > 6.00 |
| Cc1cc(C)cc(Oc2ccc([N+](=O)[O-])cc2S(=O)(=O)N2CCCNCC2)c1 [Example 1-90] | > 6.00 |
| Cl.O=[N+]([O-])c1ccc(Oc2cc(Cl)cc(Cl)c2)c(S(=O)(=O)N2CCCNCC2)c1 [Example 1-91] | > 6.00 |
| Cc1cc(C)cc(Oc2ccc([N+](=O)[O-])cc2S(=O)(=O)N2CC(C)NC(C)C2)c1 (stereo not shown) [Example 1-92] | > 6.00 |
| CC1CN(S(=O)(=O)c2cc([N+](=O)[O-])ccc2Oc2cc(Cl)cc(Cl)c2)CC(C)N1 (stereo not shown) [Example 1-93] | > 6.00 |
| Cl.N[C@H]1CCN(S(=O)(=O)c2cc([N+](=O)[O-])ccc2Oc2cc(Cl)cc(Cl)c2)C1 [Example 1-100] | > 6.00 |

— US8242118B2, “Arylsulfonamide derivatives for use as CCR3 antagonists in the treatment of inflammatory and immunological disorders” (Axikin Pharmaceuticals Inc., priority 2001, dated 2012)
